Square brackets hold non-standard residues; d marks the D form. Peptide text beside a SMILES is read from it. pGlu = O=C1CC[C@@H](C(=O)O)N1; Thz = O=C(O)[C@@H]1CSCN1

Experiment [1] deals with NLRP12. Description: NLRP12 mRNA expression in primary monocytes from peripheral blood of healthy donors. Conditions: primary monocytes from 8 different subjects, 25 and 5 μg/ml (FIG. 2). The class given is cell-based, human. As to the method:
(§1) 1. Culture of human monocytes. Peripheral blood mononuclear cells (PBMCs) were obtained by peripheral blood (freshly drawn or buffy coats). Monocytes were then derived from PBMCs by positive selection using anti-CD14 paramagnetic beads (Miltenyi Biotec) as described (Marini et al., 2008). Upon purification, cells were shortly cultured (from 24 to 72 hours) in complete culture medium (RPMI 1640 complemented with 10% of fetal bovine serum certified low endotoxin).
(§2) 2. Cell treatment with Pidotimod. PBMCs, purified primary human monocytes or MonoMac 6were treated with Pidotimod, at concentrations ranging from 1 to 25 μg/mL and, for different times. In some experiments, after 6 to 48 hours from the beginning of Pidotimod treatment, cells were washed and cultured for 6-24 hours in the presence and absence of TLR 1-9 optimal ligands (Human TLR1-9 Agonist kit, Invivogen).
(§3) 3. Evaluation of gene expression involved in Pidotimod activity. Upon stimulation, cells were harvested and total RNA was extracted using the RNAeasy mini kit (Qiagen). RNA was then retro-transcribed and subjected to amplification. Real-time PCR was performed using the “Human “RT2 Profiler PCR microarray kit” according to the manufacturer's protocol (SABbiosciences, Qiagen). […]
(§4) 5. […] Data obtained were analysed using the 2^−ΔΔCt method using Relative Quantification Study software (Applied Biosystems). […]

Experiment [2] has as its system NLRP12. The experiment can be described thus: NLRP12 downregulation induced in monocytes by TLR stimulation, Pidotimod pretreatment. Conditions: monocytes pretreated with Pidotimod. It is filed as cell-based, human. As to the method: as §1, §2
(§5) 4. Immunoblot and immunoprecipitation assays. Cell lysates were prepared in lysis buffer containing a protease inhibitor cocktail (Roche). […] To detect the presence of cytoplasmic NLRP12, a first incubation with the goat polyclonal antibody to NLRP12 (Santa Cruz Biotechnology) was followed by the addiction of donkey-anti-goat-HRP secondary antibody. […]
as §4

Experiment [3] has as its system NLRP12. Description: NLRP12 mRNA expression in MonoMac 6 cells (transcriptional array, quantitative Real-Time PCR). The class given is cell-based, human. As to the method:
as §1, §2, §3, §4
In general terms: In qPCR the cycle at which signal appears reflects the starting amount.

Another experiment concerns primary human monocytes. Description: mRNA of inflammatory mediators in primary human monocytes treated with TLR agonists. The class given is cell-based. As to the method: as §1, §2
5. Transcription array. The Pidotimod ability to reduce the inflammation induced by potent danger signals as LPS or other PAMPs was highlighted by evaluating the level of mRNA specific for effector inflammatory molecules. To this scope total RNA was extracted using the semiautomated extraction system NucliSens Easymag (Biomerieux). […] Data obtained were analysed using the 2^−ΔΔCt method using Relative Quantification Study software (Applied Biosystems). […]

The test system of experiment [4] is NLRP12. The experiment can be described thus: NLRP12 protein expression in Monomac6 by immunoprecipitation and immunoblotting. It is filed as cell-based, human. As to conditions: Monomac6, 5 μg/ml, 36 hours, immunoblotting upon immunoprecipitation (FIG. 3). As to the method: as §1, §2, §5
Experiment [5] has as its system PBMCs and/or purified monocytes. The experiment can be described thus: ELISA quantification of inflammatory molecules in cell supernatants after TLR stimulation. The class given is cell-based, human. As to the method:
as §1, §2
6. ELISA for the quantification of proinflammatory molecules induced by TLR stimulation. The increase of cytokine synthesis is the signal of cellular response to TLR stimulation. Pidotimod disciplines the extent of inflammation by upregulating the expression of NLRP12 which reduces the amplification of inflammatory signals triggered by TLR activation. […] The presence of IL-6, IL-8, TNF-α, MCP-1 and IL-1β was quantified in the cultural medium through ELISA assays (Endogen).
(In an ELISA, binding on a coated surface is turned into a signal by an enzyme label.)

`O=C1CC[C@@H](C(=O)N2CSC[C@H]2C(=O)O)N1` [Pidotimod, (4R)-3-(5-oxo-L-prolyl)-1,3-thiazolidine-4-carboxylic acid] ([pGlu]-[Thz]-OH): the “NLRP12 mRNA expression vs non-treated cells” value in the experiment with NLRP12 [1] is on record as “increase of NLRP12 mRNA expression”. Further, the “NLRP12 expression at messenger level after TLR stimulation” value in the experiment on NLRP12 [2] (representative TLR with optimal agonist (FIG. 5 left panel)) is reported as “able to counteract the decrement of NLRP12 expression”. In addition, the “NLRP12 expression at protein level after TLR stimulation” value in the experiment with NLRP12 [2] (representative TLR with optimal agonist (FIG. 5 right panel)) is reported as “able to counteract the decrement of NLRP12 expression”. The “NLRP12 mRNA increase as compared to unstimulated cells” value in the experiment on NLRP12 [3] (25 μg/ml, 16 hours of treatment, gene array confirmed by Real-Time PCR) is “two-fold”. The “time of peak of increase in NLRP12 expression” value in the experiment with NLRP12 [3] (25 and 5 μg/ml, tested 6, 16, 24, 48 hours (FIG. 1)) amounted to 24 h. For the same compound, the “IL-6, IL-8, TNF-α and IL-1β mRNA induced by TLR agonists” value in the experiment with primary human monocytes is recorded as “controls the production of these mediators at the transcriptional level”. Further, the “levels of specific MCP-1 (mRNA) induced by TLR agonists” value with primary human monocytes (8 samples from 8 donors (FIG. 4)) is listed as “consistently diminished”. In the experiment on NLRP12 [4], the “NLRP12 protein expression level vs untreated cells” value is recorded as “higher amount of NLRP12 protein”. The “inflammatory molecules in cell supernatants by ELISA” value in experiment [5] (purified monocytes, TLR stimulation) is given as “confirmed”. For the same compound, the “inflammatory molecules by ELISA in total PBMC” value in experiment [5] (total PBMC instead of purified monocytes) is listed as “reproducible”.

(Values after patent US20160213651A1, “PIDOTIMOD FOR USE IN THE TREATMENT OF INFLAMMATION-ASSOCIATED DISEASES” (POLICHEM S.A., priority 2013, published 2016).)
